# Values quoted from earlier work as cited in patent US20110178105A1, “CLINICAL BENEFITS OF EICOSAPENTAENOIC ACID IN HUMANS” (E.I. DU PONT DE NEMOURS AND COMPANY, priority 2010, published 2011).
# Settings: human, in vivo; cited from earlier work
substance,measurement,value
vitamin E,benefit in post-myocardial infarction patients,no benefit
